From patent US6432433B1, “Liquid biocidal composition of a formaldehyde adduct and an isothiazolone and method of use” (ISP Investments Inc., priority 2000, dated 2002)
“And” between values parts separate entries of the source, which are not always exact repeats. Equal values may be shown once. Read-outs that look alike come from different tables or passages of the source.

What was measured:
Format in all cases: cell-based
[1] = system: Bacillus subtilis (ATCC 27328); experiment: MIC on Tryptic Soy Agar; details: for MIC: Bacillus subtilis, read-out: MIC end point, compound alone (QA / QB)
Procedure: (§1) The agar was inoculated to contain about 1×10^6 CFU/ml bacterial cells or fungal spores.
(§2) The MIC were taken as end points of activity. End points for the mixture of NMPFA (DMO, MBO or HMAE) and BIT were then compared with the end points for the pure active compound when employed individually.
(§3) Synergism was determined by a commonly used method described by Kull, A. C., Eisman, P. C, Sylwestrowicz ,H., D. and Mayer, R. L. (1961). Applied Microbiology, 9:538 using the ratio determined by:
(§4) Qa/QA+Qb/QB=Synergy Index (SI)
(§5) where QA is the concentration of the formaldehyde adduct in parts per million (ppm), acting alone, which produced an end point. Qa is the concentration of the formaldehyde adduct in ppm, in the mixture, which produced an end point. QB is the concentration of BIT in ppm, acting alone, which produced an end point and Qb is the concentration of BIT in ppm, in the mixture, which produced an end point.
(§6) When the sum of Qa/QA+Qb/QB is greater than one, antagonism is indicated. When the sum is equal to one, additivity is indicated.

[2] = system: Enterobacter cloacae (ATCC 13047); experiment: MIC on Tryptic Soy Agar; details: E. cloacae; TSA, 32° C., 48 hours
Procedure: as §1, §2, §3, §4, §5, §6

[3] = system: Escherichia coli (ATCC 11229); experiment: MIC on Tryptic Soy Agar; details: E. coli; TSA, 32° C., 48 hours
Procedure: as §1, §2, §3, §4, §5, §6

[4] = system: Pseudomonas aeruginosa (ATCC 10145); experiment: MIC on Tryptic Soy Agar; details: P. aeruginosa; TSA, 32° C., 48 hours
Procedure: as §1, §2, §3, §4, §5, §6

[5] = system: Staphylococcus aureus (ATCC 6538); experiment: MIC on Tryptic Soy Agar; details: S. aureus; TSA, 32° C., 48 hours
Procedure: as §1, §2, §3, §4, §5, §6

[6] = system: Aspergillus niger (ATCC 6275); experiment: MIC on Potato Dextrose Agar; details: A. niger; PDA, 28°, 7-10 days
Procedure: as §1, §2, §3, §4, §5, §6

[7] = system: Aureobasidium pullulans (ATCC 9348); experiment: MIC on Potato Dextrose Agar; details: A. pullulans; PDA, 28°, 7-10 days
Procedure: as §1, §2, §3, §4, §5, §6

[8] = system: Chaetomium globosum (ATCC 6205); experiment: MIC on Potato Dextrose Agar; details: C. globosum; PDA, 28°, 7-10 days
Procedure: as §1, §2, §3, §4, §5, §6

[9] = system: Gliocladium virens (ATCC 9645); experiment: MIC on Potato Dextrose Agar; details: for MIC: Trichoderma virens
Procedure: as §1, §2, §3, §4, §5, §6

[10] = system: Penicillium funiculosum (ATCC 11797); experiment: MIC on Potato Dextrose Agar; details: P. funiculosum; PDA, 28°, 7-10 days
Procedure: as §1, §2, §3, §4, §5, §6

[11] = system: mixed culture of P. aeruginosa, E. cloacae, B. subtilis, B. megaterium and B. licheniformis; experiment: In-can preservation of latex paint (ASTM D2574-97), two challenges; details: polyvinyl acrylic paint, 32° C., mixed inoculum, rechallenged after 7 days
Procedure: The efficacy of each individual compound or their combination was measured in a latex paint artificially contaminated with a mixed inoculum. The microbiological evaluations shown as examples, are based on ASTM D2574-97, “Resistance of emulsion paints in the container to the attack of microorganisms”. Briefly, paint samples (e.g. polyvinyl acrylic, PCL 717) were prepared to contain different concentrations of each compound or their mixtures in different concentrations and ratios. Each paint sample thus prepared was then inoculated with a mixed culture of P. aeruginosa, E. cloacae, B. subtilis, B. megaterium and B. licheniformis (final concentration of about 10^6 CFU/ml) and rechallenged after 7 days (final concentration of about 10^7 CFU/ml). Paint samples were incubated at 32° C. for the duration of the test and sampled for the presence of viable bacteria on TSA plates. A paint sample was considered appropriately preserved if no bacterial growth was detected after six days in both challenge assays. […]
1. The end-point activity in ppm obtained when no viable bacteria was detected after both challenges in a paint sample containing the compound A alone (QA), for compound A in the mixture (Qa), for compound B alone (QB) or for compound B in the mixture (Qb). […]
3. The calculated Synergy Index (SI), as described above

[12] = B. subtilis, TSA, 32° C., 48 hours

MIC ([1]; ATCC27328, B. subtilis, TSA, 32° C., 48 hours)	MIC ([9]; ATCC9645, G. virens, PDA, 28°, 7-10 days, read-out: MIC end point, compound alone (QA / QB))	SMILES	MIC end point, compound alone (QA / QB) [1, 12]	MIC end point, compound alone (QA / QB) [2]	MIC end point, compound alone (QA / QB) [3]	MIC end point, compound alone (QA / QB) [4]	MIC end point, compound alone (QA / QB) [5]	MIC end point, compound alone (QA / QB) [6]	MIC end point, compound alone (QA / QB) [7]	MIC end point, compound alone (QA / QB) [8]	MIC end point, compound alone (QA / QB) ([9]; G. virens, PDA, 28°, 7-10 days)	MIC end point, compound alone (QA / QB) [10]	End-point activity (no viable bacteria detected after both challenges), compound alone (QA / QB) [11]	MIC ([1]; ATCC27328, 48 h)	MIC ([9]; ATCC9645, read-out: MIC end point, compound alone (QA / QB))
–	–	O=c1[nH]sc2ccccc12 [BIT, 1,2-benzisothiazolin-3-one, reference compound]	25.0 ppm and 25 ppm	2500 ppm	50.0 ppm	250.0 ppm	50 ppm	250 ppm	50 ppm	250 ppm	100 ppm	25 ppm	170.0 ppm	–	–
–	–	OCCNCO [HMAE, 2-[(hydroxymethyl)amino]ethanol]	–	–	–	–	–	–	–	–	–	–	–	250 µg/mL	1000 µg/mL
385 µg/mL	770 µg/mL	CC1(C)COCN1 [DMO, 4,4-dimethyloxazolidine]	–	–	–	–	–	–	–	–	–	–	–	–	–
–	–	CC(O)CN(C)CC(C)OCO (centres unmarked) [NMPFA, N-methyl-2-hydroxymethyleneoxypropyl-2′-hydroxypropylamine]	500 ppm	1,000 ppm	1,000 ppm	1,000 ppm	1,000 ppm	1,000 ppm	500 ppm	>2,000 ppm	>2,000 ppm	250 ppm	1,000 ppm	–	–
